Drawing on US20260132132A1, “3A,4,5,6-TETRAHYDRO-1 H-PYRAZOLO[3,4-C]PYRIDIN-7(7AH)-ONE DERIVATIVES AS FACTOR XIIA INHIBITORS” (KALVISTA PHARMACEUTICALS LIMITED, priority 2022, published 2026), this text covers IC50 for 16 molecules.

For experiment [1], the target named is T1, Human Factor XIIa (hFXIIa) (Homo sapiens, UniProt P00748).
T1 construct: purchased Enzyme Research Laboratories
T1 sequence (P00748 373-615 limits assumed): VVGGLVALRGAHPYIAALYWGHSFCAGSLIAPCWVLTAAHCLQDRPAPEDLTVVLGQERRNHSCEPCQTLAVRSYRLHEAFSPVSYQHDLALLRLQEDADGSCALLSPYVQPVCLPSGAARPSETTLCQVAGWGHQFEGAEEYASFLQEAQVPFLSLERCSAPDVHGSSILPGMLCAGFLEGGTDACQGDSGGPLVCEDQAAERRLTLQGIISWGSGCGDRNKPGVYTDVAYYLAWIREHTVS
T1 sequence (P00748 20-372 partner limits assumed): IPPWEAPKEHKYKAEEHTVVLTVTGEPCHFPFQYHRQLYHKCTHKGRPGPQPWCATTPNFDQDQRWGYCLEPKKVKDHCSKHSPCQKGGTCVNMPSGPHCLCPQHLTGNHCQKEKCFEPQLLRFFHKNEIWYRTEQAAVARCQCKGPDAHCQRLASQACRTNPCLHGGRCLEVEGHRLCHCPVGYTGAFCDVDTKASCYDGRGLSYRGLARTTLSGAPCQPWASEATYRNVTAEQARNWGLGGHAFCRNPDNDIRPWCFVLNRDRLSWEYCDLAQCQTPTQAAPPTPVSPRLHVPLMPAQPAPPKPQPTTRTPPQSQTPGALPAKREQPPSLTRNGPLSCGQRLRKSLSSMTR
The experiment can be described thus: Determination of Human Factor XIIa (hFXIIa) inhibition, fluorogenic substrate IC50 assay. It counts as biochemical. The settings on record: fluorogenic substrate H-DPro-Phe-Arg-AFC at Km, 25° C., read-out: Human FXIIa IC50. As to the method:
Determination of Human Factor XIIa (hFXIIa) inhibition
The Km for the cleavage of the substrate by hFXIIa was determined by standard transformation of the Michaelis-Menten equation, with subsequent inhibition assays performed at substrate Km concentration.

A further experiment concerns the target FXa (Homo sapiens, UniProt P00742). Description: Related protease inhibition: FXa, fluorogenic substrate. It counts as biochemical. Particulars: fluorogenic substrate at Km, 25° C.; H1-H3 = % activity at 40 μM. Here is the method: Human serine protease enzyme Plasma Kallikrein, KLK1, FXa, Plasmin, Thrombin and Trypsin were assayed for enzymatic activity using an appropriate fluorogenic substrate at Km concentration, FXIa at fixed substrate concentration of 100 μM and various concentrations of the test compound.

Bounds are passed on as bounds.

FXa, sequence (P00742 235-488 limits assumed): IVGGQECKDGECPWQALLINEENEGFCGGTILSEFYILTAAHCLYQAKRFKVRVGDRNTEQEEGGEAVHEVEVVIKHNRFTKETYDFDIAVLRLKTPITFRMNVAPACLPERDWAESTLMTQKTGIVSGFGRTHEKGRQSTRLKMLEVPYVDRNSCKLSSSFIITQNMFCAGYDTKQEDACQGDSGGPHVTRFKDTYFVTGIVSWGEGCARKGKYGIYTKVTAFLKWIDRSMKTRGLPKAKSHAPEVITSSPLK
FXa, sequence (P00742 41-179 partner limits assumed): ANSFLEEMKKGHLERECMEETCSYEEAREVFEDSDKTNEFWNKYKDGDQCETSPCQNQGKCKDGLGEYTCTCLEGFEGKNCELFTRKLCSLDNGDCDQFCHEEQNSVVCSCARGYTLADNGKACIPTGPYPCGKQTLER

Regarding `CN1CCc2ccc(N3CCc4c(C(=O)NCC5CC5)nn(-c5cccc(C(N)=O)c5)c4C3=O)cc2C1=O` [Example 2006, 1-(3-carbamoylphenyl)-N-(cyclopropylmethyl)-6-(2-methyl-1-oxo-1,2,3,4-tetrahydroisoquinolin-7-yl)-7-oxo-4,5,6,7-tetrahydro-1H-pyrazolo[3,4-c]pyridine-3-carboxamide], the IC50 in experiment [1] is 10 to 40 µM; at FXa, more than 40 µM.
On to `Cc1ccc(-n2nc(C(=O)NCc3cnccc3C)c3c2C(=O)N(c2ccc4c(c2)CN(CCO)CC4)CC3)cc1Cl` [Example 2007, 1-(3-chloro-4-methylphenyl)-6-(2-(2-hydroxyethyl)-1,2,3,4-tetrahydroisoquinolin-7-yl)-N-((4-methylpyridin-3-yl)methyl)-7-oxo-4,5,6,7-tetrahydro-1H-pyrazolo[3,4-c]pyridine-3-carboxamide], for which the IC50 is 0.1 to 0.3 µM in experiment [1] and more than 40 µM against FXa.
Turning to `Cc1cccc(-n2nc(C(=O)NCc3cnccc3C)c3c2C(=O)N(c2ccc4c(c2)CN(CCO)CC4)CC3)c1` [Example 2008, 6-(2-(2-hydroxyethyl)-1,2,3,4-tetrahydroisoquinolin-7-yl)-N-((4-methylpyridin-3-yl)methyl)-7-oxo-1-(m-tolyl)-4,5,6,7-tetrahydro-1H-pyrazolo[3,4-c]pyridine-3-carboxamide], the concentration for half-maximal inhibition (IC50) was in the range of 0.01 to 0.1 µM in experiment [1] and 3 to 10 µM against FXa.
With `Cc1ccncc1CNC(=O)c1nn(-c2cccc(C(F)(F)F)c2)c2c1CCN(c1ccc3c(c1)CN(CCO)CC3)C2=O` [Example 2009, 6-(2-(2-hydroxyethyl)-1,2,3,4-tetrahydroisoquinolin-7-yl)-N-((4-methylpyridin-3-yl)methyl)-7-oxo-1-(3-(trifluoromethyl)phenyl)-4,5,6,7-tetrahydro-1H-pyrazolo[3,4-c]pyridine-3-carboxamide], the IC50 in experiment [1] was 0.1 to 0.3 µM; on FXa, more than 40 µM.
As to `Cc1ccncc1CNC(=O)c1nn(-c2cccc(C#N)c2)c2c1CCN(c1ccc3c(c1)CN(CCO)CC3)C2=O` [Example 2010, 1-(3-cyanophenyl)-6-(2-(2-hydroxyethyl)-1,2,3,4-tetrahydroisoquinolin-7-yl)-N-((4-methylpyridin-3-yl)methyl)-7-oxo-4,5,6,7-tetrahydro-1H-pyrazolo[3,4-c]pyridine-3-carboxamide], the half-maximal inhibitory concentration (IC50) in experiment [1] was 0.1 to 0.3 µM; at FXa it was more than 40 µM.
Take `Cc1cc(CNC(=O)c2nn(-c3cccc(C#N)c3)c3c2CCN(c2ccc4c(c2)C(=O)N(C)CC4)C3=O)nn1C` [Example 2012, 1-(3-cyanophenyl)-N-((1,5-dimethyl-1H-pyrazol-3-yl)methyl)-6-(2-methyl-1-oxo-1,2,3,4-tetrahydroisoquinolin-7-yl)-7-oxo-4,5,6,7-tetrahydro-1H-pyrazolo[3,4-c]pyridine-3-carboxamide]: the half-maximal inhibitory concentration (IC50) was 0.3 to 1 µM in experiment [1] and more than 40 µM at FXa.
For `CN1CCc2ccc(N3CCc4c(C(=O)NCC5CC5)nn(-c5cc(Cl)cc(C#N)c5)c4C3=O)cc2C1=O` [Example 2013, 1-(3-chloro-5-cyanophenyl)-N-(cyclopropylmethyl)-6-(2-methyl-1-oxo-1,2,3,4-tetrahydroisoquinolin-7-yl)-7-oxo-4,5,6,7-tetrahydro-1H-pyrazolo[3,4-c]pyridine-3-carboxamide], the IC50 in experiment [1] was 3 to 10 µM; against FXa it was more than 40 µM.
For `CN1CCc2ccc(N3CCc4c(C(=O)NCC5CC5)nn(-c5cccc(Cl)n5)c4C3=O)cc2C1=O` [Example 2020, 1-(6-Chloropyridin-2-yl)-N-(cyclopropylmethyl)-6-(2-methyl-1-oxo-1,2,3,4-tetrahydroisoquinolin-7-yl)-7-oxo-4,5,6,7-tetrahydro-1H-pyrazolo[3,4-c]pyridine-3-carboxamide], the IC50 in experiment [1] was 0.1 to 0.3 µM; against FXa, more than 40 µM.
`CCNC(=O)c1nn(-c2cc(C)cc(CN)c2)c2c1CCN(c1ccc3c(c1)C(=O)N(C)CC3)C2=O` [Example 2024, 1-(3-(aminomethyl)-5-methylphenyl)-N-ethyl-6-(2-methyl-1-oxo-1,2,3,4-tetrahydroisoquinolin-7-yl)-7-oxo-4,5,6,7-tetrahydro-1H-pyrazolo[3,4-c]pyridine-3-carboxamide]: the figures for the IC50 (in experiment [1]; against FXa) were 0.01 to 0.1 µM and more than 40 µM, respectively.
Take `Cc1cc(CN)cc(-n2nc(C(=O)O)c3c2C(=O)N(c2ccc4c(c2)C(=O)N(C)CC4)CC3)c1` [Example 2025, 1-(3-(aminomethyl)-5-methylphenyl)-6-(2-methyl-1-oxo-1,2,3,4-tetrahydroisoquinolin-7-yl)-7-oxo-4,5,6,7-tetrahydro-1H-pyrazolo[3,4-c]pyridine-3-carboxylic acid]: the IC50 in experiment [1] lay in the range of 0.01 to 0.1 µM; on FXa, 10 to 40 µM.
Take `CCNC(=O)c1nn(-c2cncc(C)c2)c2c1CCN(c1ccc3c(c1)C(=O)N(C)CC3)C2=O` [Example 2027, N-ethyl-6-(2-methyl-1-oxo-1,2,3,4-tetrahydroisoquinolin-7-yl)-1-(5-methylpyridin-3-yl)-7-oxo-4,5,6,7-tetrahydro-1H-pyrazolo[3,4-c]pyridine-3-carboxamide]: the IC50 in experiment [1] is 3 to 10 µM; against FXa it was more than 40 µM.
On the same counts, the results for `CCNC(=O)c1nn(-c2ccc(C)cn2)c2c1CCN(c1ccc3c(c1)C(=O)N(C)CC3)C2=O` [Example 2028, N-ethyl-6-(2-methyl-1-oxo-1,2,3,4-tetrahydroisoquinolin-7-yl)-1-(5-methylpyridin-2-yl)-7-oxo-4,5,6,7-tetrahydro-1H-pyrazolo[3,4-c]pyridine-3-carboxamide] are 10 to 40 µM and more than 40 µM.
On the same counts, the results for `CCNC(=O)c1nn(-c2cc(Cl)ccc2C)c2c1CCN(c1ccc3c(c1)C(=O)N(C)CC3)C2=O` [Example 2029, 1-(5-chloro-2-methylphenyl)-N-ethyl-6-(2-methyl-1-oxo-1,2,3,4-tetrahydroisoquinolin-7-yl)-7-oxo-4,5,6,7-tetrahydro-1H-pyrazolo[3,4-c]pyridine-3-carboxamide] are 10 to 40 µM and more than 40 µM.
Turning to `CCNC(=O)c1nn(-c2cc(Cl)ccc2F)c2c1CCN(c1ccc3c(c1)C(=O)N(C)CC3)C2=O` [Example 2030, 1-(5-chloro-2-fluorophenyl)-N-ethyl-6-(2-methyl-1-oxo-1,2,3,4-tetrahydroisoquinolin-7-yl)-7-oxo-4,5,6,7-tetrahydro-1H-pyrazolo[3,4-c]pyridine-3-carboxamide], the IC50 fell in the range of 3 to 10 µM in experiment [1] and 10 to 40 µM at FXa.
On to `CCNC(=O)c1nn(-c2cccc(C)c2F)c2c1CCN(c1ccc3c(c1)C(=O)N(C)CC3)C2=O` [Example 2032, N-ethyl-1-(2-fluoro-3-methylphenyl)-6-(2-methyl-1-oxo-1,2,3,4-tetrahydroisoquinolin-7-yl)-7-oxo-4,5,6,7-tetrahydro-1H-pyrazolo[3,4-c]pyridine-3-carboxamide], for which the IC50 in experiment [1] was 0.3 to 1 µM; against FXa it was more than 40 µM.
Take `CCNC(=O)c1nn(-c2cc(Cl)cc(CO)c2)c2c1CCN(c1ccc3c(c1)C(=O)N(C)CC3)C2=O` [Example 2033, 1-(3-chloro-5-(hydroxymethyl)phenyl)-N-ethyl-6-(2-methyl-1-oxo-1,2,3,4-tetrahydroisoquinolin-7-yl)-7-oxo-4,5,6,7-tetrahydro-1H-pyrazolo[3,4-c]pyridine-3-carboxamide]: the IC50 in experiment [1] was 0.3 to 1 µM; against FXa, more than 40 µM.
